Structures can show the parent of a compound that is named as a salt.
The compounds below were run on phenylquinone-induced writhing in mice (assay: Analgesic testing by phenylquinone-induced writhing test in mice). Details: 10 min; 10 mg/kg intravenous, mouse, phenylquinone i.p. 10 minutes after compound; read-out: % Inhibition of writhing reaction.
Type: in vivo, mouse (male NMRI mice)
Method: Analgesic Testing by Writhing Test in Mice
The investigation into analgesic efficacy was performed by phenylquinone-induced writhing in mice (modified after: I. C. Hendershot and J. Forsaith (1959) J. Pharmacol. Exp. There. 125, 237–240). Male NMRI mice weighing from 25–30 g were used for this purpose. 10 minutes after intravenous administration of the test compounds, groups of 10 animals per dose of a compound received 0.3 ml/mouse of a 0.02% aqueous solution of phenylquinone (phenylbenzoquinone, sigma, Deisenhofen; production of the solution with addition of 5% ethanol and storage in water bath at 45° C.), administered intraperitoneally. The animals were placed individually in observation cages. A push button counter was used to record the number of pain-induced stretching movements (writhing reactions=straightening of the torso with stretching of the rear extremities) for 5–20 minutes after phenylquinone administration. The control was provided by animals who received only physiological common salt solution. All the compounds were tested at the standard dosage of 10 mg/kg. The percentage inhibition (%inhibition) of the writhing reaction by a compound of the general formula I according to the invention was calculated according to the following formula: […]
The in-depth investigation of the compounds of the general formula I according to the invention for analgesic efficacy was performed by phenylquinone-induced writhing in mice, as described above.

Structure (SMILES)	inhibition in vivo at 10 mg/kg [%]
CN(C)C(C1=C(Cc2ccccc2F)CCCC1)c1ccccc1 (stereo not drawn) [Example 19, {[2-(2-Fluoro-benzyl)-cyclohex-1-enyl)-phenyl-methyl}-dimethyl-amine hydrochloride]	87
CN(C)C(C1=C(Cc2ccccc2Cl)CCCC1)c1ccccc1 (stereo not drawn) [Example 20, {[2-(2-Chloro-benzyl)-cyclohex-1-enyl]-phenyl-methyl}-dimethyl-amine hydrochloride]	63
CN(C)C(C1=C(Cc2cccc(F)c2)CCCC1)c1ccccc1 (stereo not drawn) [Example 21, {[2-(3-Fluoro-benzyl)-cyclohex-1-enyl)-phenyl-methyl}-dimethyl-amine hydrochloride]	67
CN(C)C(C1=C(CCc2ccccc2)CCCC1)c1ccccc1 (stereo not drawn) [Example 23, Dimethyl-[(2-phenethyl-cyclohex-1-enyl)-phenyl-methyl]-amine hydrochloride]	67
CN(C)C(c1ccccc1)C1CCCC=C1c1cccc(O)c1 (stereo not drawn) [Example 24, 3-[6-(dimethylamino-phenyl-methyl)-cyclohex-1-enyl]-phenol hydrochloride]	76
COc1ccc(C2=CCCCC2C(c2ccccc2)N(C)C)cc1 (stereo not drawn) [Example 27, {[2-(4-methoxy-phenyl)-cyclohex-2-enyl]-phenyl-methyl}-dimethylamine hydrochloride]	47
CN(C)C(C1=C(c2ccc(Cl)cc2)CCCC1)c1ccccc1 (stereo not drawn) [Example 28, {[2-(4-Chloro-phenyl)-cyclohex-1-enyl]-phenyl-methyl}-dimethyl-amine hydrochloride]	71
CN(C)C(C1=C(c2ccccc2)CCCC1)c1ccc(C(F)(F)F)cc1 (stereo not drawn) [Example 29, Dimethyl-[(2-phenyl-cyclohex-1-enyl)-(4-trifluoromethyl-phenyl)-methyl]-amine hydrochloride]	40

Same assay, conditions: 10 min; 21.5 mg/kg intravenous, mouse, phenylquinone i.p. 10 minutes after compound; read-out: % Inhibition of writhing reaction

Structure (SMILES)	inhibition in vivo at 21.5 mg/kg [%]
CN(C)C(C1=C(Cc2cccc(C(F)(F)F)c2)CCCC1)c1ccccc1 (stereo not drawn) [Example 22, Dimethyl-{phenyl-[2-(3-trifluoromethyl-benzyl)-cyclohex-1-enyl]-methyl}-amine hydrochloride]	46

Reference: US7064236B2, “Substituted 1-aryl-but-3-enylamine and 1-aryl-but-2-enylamine compounds” (Grunenthal GmbH, priority 2001, dated 2006)
